Legend:
[1] = tested on: morningglory; test: Test A pre-/postemergence herbicide test; type: in vivo, Ipomoea spp.; conditions: for Plant response rating, Morningglory: Postemergence; for Morningglory plant response rating: Preemergence
Summary of the method: (§1)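 Visual injury rating on a 0–100 scale (0 no effect, 100 complete control) versus untreated controls, about ten days after treatment in greenhouse. Pre: directed soil spray onto seeded sandy loam. Post: spray to runoff on plants 2–10 cm tall at one- to two-leaf stage.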

[2] = tested on: morningglory; test: Test B pre-/postemergence herbicide test; type: in vivo, Ipomoea coccinea
Summary of the method: (§2)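 Herbicidal effect was judged by eye on a 0–100 scale after plants stood 13 to 15 days in the greenhouse following pre- or postemergence treatment with surfactant-containing formulations.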

[3] = tested on: rice; test: Test B flooded paddy test; type: in vivo, Oryza sativa; conditions: 1000 g ai/ha, visual rating, scale 0 to 100 (0 no effect, 100 complete control), 13 to 15 days
Summary of the method: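 Greenhouse test; postemergence application to plants at 1–4 leaves (2–18 cm); paddy species at 2 leaves; evaluated visually vs controls at 13–15 days; scale 0–100 (100 = complete control).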

[4] = tested on: large crabgrass; test: Test B pre-/postemergence herbicide test; type: in vivo, Digitaria sanguinalis
Summary of the method: (§3)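 Greenhouse pot assay with simultaneous preemergence (treated seed) and postemergence (2–18 cm seedlings) applications of surfactant-containing, non-phytotoxic solvent formulations. Response scored visually 13–15 days later on a 0–100 scale, 100 meaning complete control.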

[5] = tested on: cocklebur; test: Test B pre-/postemergence herbicide test; type: in vivo, Xanthium strumarium
Summary of the method: as §2

[6] = tested on: giant foxtail; test: Test A pre-/postemergence herbicide test; type: in vivo, Setaria faberi; conditions: for Plant response rating, Foxtail, Giant: Postemergence; for Foxtail, Giant plant response rating: Preemergence
Summary of the method: as §1

[7] = tested on: blackgrass; test: Test B postemergence herbicide test; type: in vivo, Alopecurus myosuroides; conditions: Postemergence, scale 0 (no effect) to 100 (complete control)
Summary of the method: (§4)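 Treated at 2-leaf (paddy) or 1–4-leaf, 2–18 cm (postemergence); greenhouse 13–15 d; visual score vs control, 0 none to 100 complete control; dash = not tested.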

[8] = tested on: velvetleaf; test: Test A pre-/postemergence herbicide test; type: in vivo, Abutilon theophrasti; conditions: for Plant response rating, Velvetleaf: Postemergence; for Velvetleaf plant response rating: Preemergence
Summary of the method: as §1

[9] = tested on: wheat; test: Test B postemergence herbicide test; type: in vivo, Triticum aestivum; conditions: Postemergence, 500 g ai/ha; visual rating after 13 to 15 days, scale 0 (no effect) to 100 (complete control)
Summary of the method: (§5)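 Plants grow to 1- to 4-leaf stage (2–18 cm) for postemergence spraying, or to 2-leaf stage for the paddy test. Formulated compound is applied. Greenhouse holding lasts 13–15 days. Response is scored visually relative to controls, 0 no effect to 100 complete control; a dash means no result.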

[10] = tested on: ducksalad; test: Test B flooded paddy test; type: in vivo, Heteranthera limosa; conditions: 1000 g ai/ha, visual rating, scale 0 to 100 (0 no effect, 100 complete control), 13 to 15 days
Summary of the method: as §4

[11] = tested on: corn; test: Test B pre-/postemergence herbicide test; type: in vivo, Zea mays; conditions: Preemergence, 500 g ai/ha; scale 0 to 100
Summary of the method: as §3

[12] = tested on: Surinam grass; test: Test B pre-/postemergence herbicide test; type: in vivo, Urochloa decumbens
Summary of the method: as §3

[13] = tested on: barnyardgrass; test: Test B flooded paddy test; type: in vivo, Echinochloa crus-galli; conditions: 1000 g ai/ha, visual rating, scale 0 to 100 (0 no effect, 100 complete control), 13 to 15 days
Summary of the method: as §4

[14] = tested on: giant foxtail; test: Test B pre-/postemergence herbicide test; type: in vivo, Setaria faberi
Summary of the method: as §3

[15] = tested on: redroot pigweed; test: Test A pre-/postemergence herbicide test; type: in vivo, Amaranthus retroflexus; conditions: for Plant response rating, Pigweed: Postemergence; for Pigweed plant response rating: Preemergence
Summary of the method: as §1

[16] = tested on: large crabgrass; test: Test A pre-/postemergence herbicide test; type: in vivo, Digitaria sanguinalis; conditions: for Plant response rating, Crabgrass, Large: Postemergence; for Crabgrass, Large plant response rating: Preemergence
Summary of the method: as §1

[17] = tested on: pigweed; test: Test B pre-/postemergence herbicide test; type: in vivo, Amaranthus retroflexus
Summary of the method: as §3

[18] = tested on: small flower umbrella sedge; test: Test B flooded paddy test; type: in vivo, Cyperus difformis; conditions: 1000 g ai/ha, visual rating, scale 0 to 100 (0 no effect, 100 complete control), 13 to 15 days
Summary of the method: as §4

[19] = tested on: barnyardgrass; test: Test B pre-/postemergence herbicide test; type: in vivo, Echinochloa crus-galli
Summary of the method: as §2

[20] = tested on: barnyardgrass; test: Test A pre-/postemergence herbicide test; type: in vivo, Echinochloa crus-galli; conditions: for Plant response rating, Barnyardgrass: Postemergence; for Barnyardgrass plant response rating: Preemergence
Summary of the method: as §1

[21] = tested on: lambsquarters; test: Test B pre-/postemergence herbicide test; type: in vivo, Chenopodium album
Summary of the method: as §3

[22] = tested on: wild oat; test: Test B postemergence herbicide test; type: in vivo, Avena fatua; conditions: Postemergence, scale 0 (no effect) to 100 (complete control)
Summary of the method: as §5

[23] = tested on: velvetleaf; test: Test B pre-/postemergence herbicide test; type: in vivo, Abutilon theophrasti
Summary of the method: as §3

[24] = 500 g ai/ha, 0 to 100 scale, 0 no effect, 100 complete control
[25] = 2000 g ai/ha, 0 to 100 scale, 0 no effect, 100 complete control
[26] = 500 g ai/ha, visual rating, 0 to 100 scale (0 no effect, 100 complete control)
[27] = Preemergence, 500 g ai/ha, scale 0 to 100
[28] = preemergence, 125 g ai/ha, 0 to 100 scale, 0 is no effect, 100 is complete control
[29] = Postemergence, 125 g ai/ha, scale 0 (no effect) to 100 (complete control)
[30] = Postemergence, 500 g ai/ha, visual rating after 13 to 15 days, scale 0 (no effect) to 100 (complete control)
[31] = 500 g ai/ha, visual rating after 13 to 15 days

CCN(CC)C(=O)c1cccc(NC(=O)c2cc(C(C)(C)C)nn2CCF)c1 [Compound 36]
Plant response rating, Morningglory [1, 24]: 10
Plant response rating, Morningglory [1, 25]: 10
Morningglory plant response rating [1, 26]: 20
Morningglory plant response rating [1, 25]: 70
Morningglory plant response rating [2, 27]: 10
Plant response rating, Morningglory [2, 28]: 10
Rice plant response rating [3]: 40
Crabgrass, Large plant response rating [4, 29]: 20
Plant response rating, Crabgrass, Large [4, 30]: 20
Crabgrass, Large plant response rating [4, 27]: 20
Cocklebur plant response rating [5, 29]: 30
Plant response rating, Cocklebur [5, 30]: 50
Cocklebur plant response rating [5, 27]: 0
Plant response rating, Foxtail, Giant [6, 24]: 20
Plant response rating, Foxtail, Giant [6, 25]: 35
Foxtail, Giant plant response rating [6, 26]: 5
Foxtail, Giant plant response rating [6, 25]: 85
Blackgrass plant response rating ([7]; 125 g ai/ha): 10
Plant response rating, Blackgrass [7, 31]: 20
Plant response rating, Velvetleaf [8, 24]: 15
Plant response rating, Velvetleaf [8, 25]: 20
Velvetleaf plant response rating [8, 26]: 20
Velvetleaf plant response rating [8, 25]: 90
Plant response rating, Wheat [9]: 30
Ducksalad plant response rating [10]: 90
Corn plant response rating [11]: 10
Plant response rating, Surinam Grass [12, 30]: 10
Surinam Grass plant response rating [12, 27]: 50
Plant response rating, Surinam Grass [12, 28]: 10
Barnyardgrass plant response rating [13]: 70
Foxtail, Giant plant response rating [14, 29]: 20
Plant response rating, Foxtail, Giant [14, 30]: 30
Foxtail, Giant plant response rating [14, 27]: 30
Plant response rating, Foxtail, Giant [14, 28]: 0
Plant response rating, Pigweed [15, 24]: 80
Plant response rating, Pigweed [15, 25]: 85
Pigweed plant response rating [15, 26]: 95
Pigweed plant response rating [15, 25]: 100
Plant response rating, Crabgrass, Large [16, 24]: 10
Plant response rating, Crabgrass, Large [16, 25]: 10
Crabgrass, Large plant response rating [16, 26]: 10
Crabgrass, Large plant response rating [16, 25]: 70
Plant response rating, Pigweed [17, 30]: 90
Pigweed plant response rating [17, 27]: 100
Plant response rating, Pigweed [17, 28]: 90
Sedge, Umbrella plant response rating [18]: 60
Barnyardgrass plant response rating [19, 29]: 20
Plant response rating, Barnyardgrass [19, 30]: 20
Barnyardgrass plant response rating [19, 27]: 80
Plant response rating, Barnyardgrass [20, 24]: 35
Plant response rating, Barnyardgrass [20, 25]: 80
Barnyardgrass plant response rating [20, 26]: 45
Barnyardgrass plant response rating [20, 25]: 75
Lambsquarters plant response rating [21, 29]: 80
Plant response rating, Lambsquarters [21, 30]: 90
Lambsquarters plant response rating [21, 27]: 100
Plant response rating, Lambsquarters [21, 28]: 80
Oat, Wild plant response rating ([22]; 125 g ai/ha): 20
Plant response rating, Oat, Wild [22, 31]: 20
Plant response rating, Velvetleaf [23, 30]: 40
Velvetleaf plant response rating [23, 27]: 50
Plant response rating, Velvetleaf [23, 28]: 20

Source: patent US20060069132A1, “Azolecarboxamide herbicides” (priority 2004, published 2006)
